Assay results reported in patent US20150071856A1, “ANTAGONISTIC PEPTIDES FOR FRIZZLED-1 AND FRIZZLED-2” (Universiteit Maastricht, priority 2013, published 2015).
“Also recorded” adds a separate entry of the source. Residues, ends and D or L forms follow the SMILES beside them.

How the values were obtained:
canonical Wnt signaling = experiment: Activity assay (Example 1): TOPflash luciferase reporter in HEK (HEK293-superTOPflash) cells, receptor not specified; type: cell-based, human
Protocol: Human embryonic kidney (HEK) cells were used for screening. These cells have a luciferase construct stably transfected into the genome (see FIG. 2A), such that when the frizzled receptor is activated and β-catenin is increased, the luciferase is activated by transcription and light can be measured.
The peptides were tested by transfecting the frizzled-1 or the frizzled-2 receptor and addition of UM206(S-S) to the cell culture. For testing antagonistic activity, UM206 was added and the natural ligand Wnt3a was added, which is a natural stimulus for the canonical pathway.
Transfection and Luciferase Measurement:
(§1) Plate cells in 12-well plates
Day 2: Transfection 12-Well Plates • heat Fugene6 and DNA 15 minutes at RT • 2 ml serum-free medium in tube • add 3 μl fugene • add 2 μg DNA • incubate 30 minutes at RT • wash with PBS • add 50 μl transfectiemix • add 1 ml antibiotica-free medium
Day 3: Add Conditioned Medium or UM206
Day 4: Luciferase Activity Measurements • remove medium • wash with PBS • add 500 μl ⅕ lysisbuffer • shake for 60 minutes • centrifuge in tube • 20 μl lysaat and 50 μl luciferase in new tube for measurement • vortex • measure
Three areas of high homology that contained two cysteines are underlined (UM207), (UM208) and (UM206). In FIGS. 9B through 9D, the inhibitory effect of these three peptides on Wnt3a-induced luciferase activity in HEK293-superTOPflash is shown. […] Again, the peptides by themselves had no effect on the luciferase activity.
(§2) The cell lines were cultured in 75 cm^2 culture flasks (Corning, Schiphol, the Netherlands) in Dulbeco's modified essential medium with L-glutamine (2 mM), 10% fetal calf serum (Invitrogen, Merelbeke, Belgium), and 1% gentamycin (Sigma-Aldrich, Zwijndrecht, The Netherlands). Before starting the experiment, the cell lines were treated with plasmocin 25 μg/ml (Invivogen, Toulose, France) and tested with a mycoalert mycoplasma detection kit (Lonza, Rockland Me., USA). Cells were transiently transfected with Fugene6 (Roche, Indianapolis Ind., USA) with plasmid DNA, pcDNA3.1/hygro (Invitrogen) with frizzled-1/2/4 or Wnts 3a-5a or with pcDNA3.0 (Invitrogen) containing the β-catenin or frizzled-5 sequence. After transfection, the cells were cultured for 24 hours in conditioned medium, collected from the cultured L-cells, L-cells with Wnt3a or 5a (Invitrogen). At the same moment the antagonist was added.
For the luciferase experiments not in HEK cells, the cells were additionally transfected with a TOPflash construct, eight TCF/LEF binding sites cloned into the pTA-Luc vector. Luciferase activity was measured using luciferase assay system (Promega, Madison Wis., USA).

hFzd-4 = biological target: T1, hFzd-4 (Homo sapiens, UniProt Q9ULV1); experiment: Receptor specificity: luciferase in HEK293 superTOPflash cells overexpressing hFzd-4; type: cell-based; conditions: UM206 1.10^−8 M
T1 construct: expressed in transfected cells; host or cells: HEK293 superTOPflash (transient, Fugene6, pcDNA3.1/hygro)
T1 sequence (Q9ULV1 37-537): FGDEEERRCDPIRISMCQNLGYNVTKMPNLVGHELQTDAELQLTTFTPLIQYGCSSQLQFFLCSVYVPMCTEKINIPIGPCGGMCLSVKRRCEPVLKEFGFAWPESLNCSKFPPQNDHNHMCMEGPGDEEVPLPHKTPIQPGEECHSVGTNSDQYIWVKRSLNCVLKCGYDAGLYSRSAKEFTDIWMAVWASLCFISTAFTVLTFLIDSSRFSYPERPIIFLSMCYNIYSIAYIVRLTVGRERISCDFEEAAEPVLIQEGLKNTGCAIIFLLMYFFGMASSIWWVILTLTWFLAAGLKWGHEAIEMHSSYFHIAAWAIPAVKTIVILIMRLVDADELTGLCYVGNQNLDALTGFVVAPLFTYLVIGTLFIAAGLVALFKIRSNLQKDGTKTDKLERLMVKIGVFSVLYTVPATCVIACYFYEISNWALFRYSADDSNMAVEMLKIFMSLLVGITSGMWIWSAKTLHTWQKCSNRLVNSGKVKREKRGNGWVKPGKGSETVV
Protocol: (§3) In FIG. 3, Panel E, the efficacy of UM206 to block the Wnt3a-induced activation of luciferase activity in HEK293 superTOPflash cells transfected with different Fzds is shown.
as §2

hFzd-5 = biological target: T2, hFzd-5 (Homo sapiens, UniProt Q13467); experiment: Receptor specificity: luciferase in HEK293 superTOPflash cells overexpressing hFzd-5; type: cell-based; conditions: UM206 1.10^−8 M
T2 construct: expressed in transfected cells; host or cells: HEK293 superTOPflash (transient, Fugene6, pcDNA3.0)
T2 sequence (Q13467 27-585): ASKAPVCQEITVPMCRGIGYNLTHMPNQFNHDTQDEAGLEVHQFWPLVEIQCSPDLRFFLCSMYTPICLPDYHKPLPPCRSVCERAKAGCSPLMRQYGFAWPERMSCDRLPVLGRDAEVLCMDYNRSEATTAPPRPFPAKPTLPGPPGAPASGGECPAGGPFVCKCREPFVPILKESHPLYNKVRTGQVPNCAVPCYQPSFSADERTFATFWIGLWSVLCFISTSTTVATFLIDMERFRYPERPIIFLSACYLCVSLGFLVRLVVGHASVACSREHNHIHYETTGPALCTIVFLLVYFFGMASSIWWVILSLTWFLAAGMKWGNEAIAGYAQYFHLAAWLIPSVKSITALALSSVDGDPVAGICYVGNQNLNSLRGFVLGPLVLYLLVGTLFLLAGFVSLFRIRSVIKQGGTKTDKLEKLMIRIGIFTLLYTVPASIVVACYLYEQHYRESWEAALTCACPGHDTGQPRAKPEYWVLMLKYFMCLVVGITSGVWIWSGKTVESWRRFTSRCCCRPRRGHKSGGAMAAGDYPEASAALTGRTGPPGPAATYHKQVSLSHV
Protocol: as §3, §2

[1] = test system: mouse and human Fzd-1 and -2; experiment: Antagonism of activation of mouse and human Fzd-1 and -2 by Wnt3a (data not shown); type: cell-based
Description: as §3

[2] = test system: C-FIT cells (cardiac fibroblasts immortalized with telomerase); experiment: Migration assay (wound/scratch assay) with C-FIT cells overexpressing Fzd-1 or -2; type: cell-based, rat
Protocol: For this assay, we used rat cardiac fibroblasts, which were immortalized with telomerase, the C-FIT cell line. This cell line was characterized previously and resembles features of primary cardiac fibroblasts. C-FIT cells were plated, treated when they were 70% confluent and a wound was made with a pipette tip at the moment of 100% confluence.
This assay was first tested with the natural ligand Wnt3a, in combination with frizzled-1 and -2 overexpression. […] Next step was to see whether the antagonist could counteract this. (See FIG. 4.)
as §1
Transfection (see protocol)
Addition of conditioned medium
Make a scratch. This is time point zero.
Making pictures every six hours and analyzing the scratch width.
The overexpression of Fzd-1 and -2 in migrating (myo)fibroblasts during infarct healing was one of the first reports of activation of Wnt/Fzd signaling in cardiovascular remodeling (Blankesteijn 1997). To assess the functional relevance of Wnt/Fzd signaling on cardiac fibroblast proliferation, migration and differentiation, a cardiac fibroblast cell line immortalized with telomerase was used, as previously described (Janhunen 2009, Laeremans 2009).
Cells were plated on day 0, and cultured until 70% confluence before transfection or treatment. […] Scratch width was measured at this time point, and also after 6, 12, and 24 hours.

myocardial infarction = conditions: mouse, in vivo
Protocol: To this end, we administered UM206 subcutaneously by an osmotic minipump (6 microgram/kg/day); the control group was equipped with a saline-filled minipump. The minipumps were implanted at the time of infarct induction and lasted for up to five weeks.
Male Swiss mice were used (10-12 weeks of age, Charles River, Maastricht, The Netherlands). The animals were randomly included into the three different experimental groups. […] In the treatment study, either UM206 (6 μg/kg/day) or saline were administrated by an osmotic minipump (Alzet 2002 or 2006 for two- and five-week treatments, respectively; Alzet, Cupertino Calif., USA). MI was induced, under isofluorane anesthesia as previously described (van den Borne et al., 2009).

With `CSCC[C@H](NC(=O)CNC(=O)[C@H](CCC(=O)O)NC(=O)[C@H](CO)NC(=O)[C@@H](NC(=O)[C@H](CCCCN)NC(=O)[C@H](CC(N)=O)NC(=O)[C@H](CS)NC(C)=O)[C@@H](C)O)C(=O)N[C@@H](CC(=O)O)C(=O)NCC(=O)N[C@@H](CS)C(=O)N[C@@H](CCC(=O)O)C(=O)N[C@@H](CC(C)C)C(N)=O` [UM206, Ac-Cys-Asn-Lys-Thr-Ser-Glu-Gly-Met-Asp-Gly-Cys-Glu-Leu-NH2] (Ac-CNKTSEGMDGCEL-NH2) the “IC50” value (canonical Wnt signaling) was “in the nanomolar range”, the “activity on the frizzled receptor: antagonist or agonist” value (canonical Wnt signaling; model of Example 1) was “very potent antagonist; also recorded: very potent inhibitor of the canonical Wnt signaling” and the “effect of the peptide by itself on luciferase activity” value (canonical Wnt signaling; without Wnt3a) was “none of the three peptides by itself could induce an increase in luciferase activity; also recorded: no effect”. The “effect on Wnt3a-induced luciferase activity, frizzled-4” value (hFzd-4) was “no effect”, the “effect on Wnt3a-induced luciferase activity, frizzled-5” value (hFzd-5) was “no effect” and the “antagonizing the activation of mouse and human Fzd-1 and -2 by Wnt3a” value [1] was “fully effective”. The “effect of UM206 alone on cell migration” value [2] was “no effect on cell migration”, the “counteraction of Wnt3a/Wnt5a-induced attenuation of migration” value ([2]; UM206 1.10^−8 M, Fzd-1 or -2 overexpression) was “migration was reset to the migration speed of the control; also recorded: blocked completely; also recorded: block this effect completely” and the “adverse effects of chronic administration” value (myocardial infarction) was “did not observe any adverse effects”. For the same molecule, the “effects on other organs known to contain Fzd-2, including kidney and small intestine” value (myocardial infarction) was “did not observe any effects”.
